The values that follow are results of earlier work, collected in patent publication US20170071966A1, “PHARMACEUTICAL COMPOSITION” (priority 2014, published 2017).

The conditions of data set [1]: gerbils, 1% in the food for 8 weeks.
Assay in data set [2]: not given
The source holds these as a separate data set.

Data set [3] has as its system mice exposed to whole body radiation. The following applies: beta-carotene alone, given orally before or after whole body radiation.
For data set [4] the following is noted: Nakane et al. 1996.
For data set [5] the following is noted: Zhang et al. 1994.
For data set [6] the following is noted: Senel et al. 1994.
For data set [7] the following is noted: mice, drinking water 10, 20 and 30 mg/ml (4000, 8000, 12000 mg/kg body weight), 19-day experiment.
The conditions of data set [8]: a few subjects, gram quantities.

Like-named read-outs stand apart in the source and are kept apart here.

As for `Nc1nc2c(ncn2[C@@H]2O[C@H](CO)[C@@H](O)[C@H]2O)c(=O)[nH]1` [guanosine], the water solubility entry is recorded as “slightly water-soluble”. The deleterious effects entry in data set [1] is recorded as “no obvious deleterious effects”.

Turning to `CC1=C(/C=C/C(C)=C/C=C/C(C)=C/C=C/C=C(C)/C=C/C=C(C)/C=C/C2=C(C)CCCC2(C)C)C(C)(C)CCC1` [beta-carotene], the “risk of hypervitaminosis A” value in [2] (high beta-carotene doses) is reported as “no risk of hypervitaminosis A”. For the same compound, the long-term safety result in data set [2] (patients with erythropoietic protoporphyria, 180 to 300 mg per day) is listed as “safe at the highest daily dose for a lifetime”. Besides, the acute toxicity entry in data set [2] (surveillance over the decades it was a prescription drug) is “no known acute toxicity”. Further, in [3], the survival from radiation entry is given as “enhance survival”.

As to `C[C@H](CCC(=O)[O-])[C@H]1CC[C@H]2[C@@H]3[C@H](O)C[C@@H]4C[C@H](O)CC[C@]4(C)[C@H]3C[C@H](O)[C@]12C.[Na+]` [sodium cholate, Sodium cholate], the “absorption of luteinizing hormone releasing hormone” value in data set [4] was “increased the absorption”. For the same compound, the “buccal absorption of insulin” value in data set [5] is “increased the buccal absorption”. Also, in [6], the “increase of mucosal permeability of fluorescein isothiocyanate” value was 100-200 times.

On to `Nc1nc2c(ncn2[C@@H]2O[C@H](COP(=O)(O)O)[C@@H](O)[C@H]2O)c(=O)[nH]1` [guanosine monophosphate, Guanosine Monophosphate], for which the water solubility entry is “highly water-soluble”. The ill effects entry in data set [7] is “no obvious ill effects”. Besides, the ill effects result in data set [8] is “no known ill effects”.
